According to US20080004263A1, “Ligands of Follicle Stimulating Hormone Receptor and Methods of Use Thereof” (priority 2004, published 2008):

Molecular target: T1, FSH receptor (Homo sapiens, UniProt P23945)
T1 construct: expressed in transfected cells; host or cells: AV12 cells (stably transfected)
T1 sequence (P23945 18-695): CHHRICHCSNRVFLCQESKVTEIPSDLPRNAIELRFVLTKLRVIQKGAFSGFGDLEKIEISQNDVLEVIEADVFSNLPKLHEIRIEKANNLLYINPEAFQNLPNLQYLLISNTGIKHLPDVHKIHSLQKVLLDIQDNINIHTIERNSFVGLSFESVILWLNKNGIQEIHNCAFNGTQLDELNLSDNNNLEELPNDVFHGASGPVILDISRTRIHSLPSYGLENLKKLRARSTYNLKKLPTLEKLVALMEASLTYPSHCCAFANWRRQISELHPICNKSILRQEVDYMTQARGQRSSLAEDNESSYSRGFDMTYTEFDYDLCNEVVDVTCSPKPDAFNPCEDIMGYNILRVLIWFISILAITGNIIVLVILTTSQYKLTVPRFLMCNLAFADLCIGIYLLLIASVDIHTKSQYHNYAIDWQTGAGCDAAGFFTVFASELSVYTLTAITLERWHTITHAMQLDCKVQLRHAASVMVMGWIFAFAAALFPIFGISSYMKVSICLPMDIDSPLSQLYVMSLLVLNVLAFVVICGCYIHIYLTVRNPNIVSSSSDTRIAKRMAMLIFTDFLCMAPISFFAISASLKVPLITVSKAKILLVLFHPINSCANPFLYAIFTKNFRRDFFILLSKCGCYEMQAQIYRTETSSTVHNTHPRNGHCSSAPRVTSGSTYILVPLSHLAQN
Assay: cAMP Whole Cell assay (AlphaScreen cAMP detection) in AV12 cells stably transfected with FSH receptor
Assay type: cell-based
Settings: AV12 cells expressing FSH receptor; average of two (2) trials
Description: Compounds of the invention were tested for their ability to activate an FSH receptor protein using an AlphaScreen cAMP detection kit (Perkin Elmer; Cat. No. 6760600R).
AV12 cells stably transfected with an expression vector containing an FSH construct and cultured under conditions permissive for cell surface expression of the encoded FSH receptor were harvested from flasks via non-enzymatic means. The cells were washed in PBS and resuspended in Stimulation Buffer. Live cells were counted using a hemacytometer and Trypan blue exclusion, and the cell concentration was adjusted to 2×10^5 cells/ml. A cAMP standard curve in buffer was prepared with a high final concentration of 1 μM, and serially diluted 1:5 in buffer (10 μL/well). Candidate compounds identified as per above (if frozen, thawed at room temperature) were added to their respective wells (in a 384-well plate) at increasing concentrations (5 μL/well; 10 μM final top assay concentration). To these wells, 2,000 cells in 10 μl of Buffer were added and the mixture as well as 5 μL of cAMP Acceptor Beads in Stimulation Buffer. Following a 30 minute incubation, 5 μL of Donor Bead/Biotinylated cAMP was added to each well, followed by incubation at RT for 2 hours. Plates were read in a Perkin Elmer AlphaQuest™ plate reader per manufacturer instructions.

- EC50: 1.1 µM
Structure (SMILES): Cc1onc(-c2cccc(-c3ccc(-c4nnn[nH]4)cc3)c2)c1-c1csc(C2CCN(C(=O)Cc3cccs3)CC2)n1 [Example 38, 1-[4-(4-{5-Methyl-3-[4′-(1H-tetrazol-5-yl)-biphenyl-3-yl]-isoxazol-4-yl}-thiazol-2-yl)-piperidin-1-yl]-2-thiophen-2-yl-ethanone]
